{"source": "patent US20080166805A1", "about": "“Culturing human cells and tissues in an N-glycolylneuraminic acid-free environment” (The Regents of the University of California, priority 2005, published 2008)", "key": {"[1]": {"tested_on": "human LB EBV-transformed lymphoblasts", "test": "Neu5Gc/Neu5Ac feeding experiment, human EBV-transformed lymphoblasts", "type": "cell-based", "conditions": "human lymphoblasts fed 3 mM Neu5Ac for 3 days", "description": "(§1) Cell Culture—Caco-2 cells were propagated in alpha-MEM containing GLUTAMAX™ (Invitrogen, San Diego, Calif.) and a mixture of ribonucleosides and deoxyribonucleosides (Gibco/Invitrogen, San Diego, Calif.) supplemented with 20% FCS. All the fibroblast cell lines and CHO-K1 cells were cultured in the same media supplemented respectively with 15% non-heat inactivated FCS or 10% heat inactivated FCS. Chimpanzee Fred and human […] EBV-transformed lymphoblasts were cultured in RPMI-1640 (Gibco/Invitrogen, San Diego, Calif.) supplemented with 10% heat inactivated FCS or 15% human serum. All of the cultures were maintained at 37° C., 5% CO2 atmosphere. In order to deplete any remaining Neu5Gc from FCS, the cells were split and cultured prior to Neu5Gc feeding experiments for at least 4 days in alpha-MEM supplemented with an adequate percentage of heat-inactivated premium human serum instead of FCS. The cells were then maintained under the same conditions during the whole feeding experiment. The human serum was heat inactivated at 56° C. for 30 min. before use.\n(§2) Neu5Gc and ManNGc Feeding Experiment—Neu5Ac, Neu5Gc or ManNGc were dried, dissolved in the appropriate media supplemented with heat-inactivated human serum, sterilized using a Spin-X® (Corning Inc., Corning, N.Y.) and then added to the cells. The pH of the media containing Sia was adjusted to neutrality using sterilized 1M NaOH before starting the feeding experiment. Cells were cultured in the presence of up to 3 mM free Sia or ManNGc for 1 or 3 days at 37° C. […]\n(§3) Fractionation of the Labeled Cells—Washed cell pellets were sonicated into 500 μL of 20 mM sodium phosphate buffer or 20 mM Tris-HCl, pH 7.5, using 4×15 second pulses of a sonicator cell disrupter, model Some Dismembrator (Fisher Scientific, Hampton, N.J.) at a probe setting of 3. […] The pellet contained <5% of the incorporated sialic acid as determined using a radioactive tracer (data not shown.) The supernatant was therefore considered as the “total homogenate” fraction. A portion (20%) of the “total homogenate” fraction was taken for protein quantification and Sia analysis by DMB derivatization and HPLC analysis (as discussed below.) The remainder was centrifuged at 100,000×g for 1 h. […] All the Sias in these fractions were released with mild acid hydrolysis if necessary and then analyzed by HPLC after DMB derivatization. Protein quantification was performed on the total homogenate, membrane and soluble protein fractions by using the BCA protein assay kit from Pierce (Rockford, Ill.) In some experiments, the resulting data obtained for the Sia bound to the membrane fraction and to the soluble proteins were pooled and presented here as a High Molecular Weight (HMW) fraction. […]"}, "[2]": {"tested_on": "chimpanzee lymphoblasts", "test": "Neu5Gc/Neu5Ac feeding experiment, chimpanzee EBV-transformed lymphoblasts", "type": "cell-based", "conditions": "chimpanzee lymphoblasts fed 3 mM Neu5Ac for 3 days", "description": "as §1, §2, §3"}, "[3]": {"tested_on": "Caco-2 cells", "test": "Competition of free Neu5Ac with free Neu5Gc for incorporation into Caco-2 cells", "type": "cell-based, human", "description": "Neu5Gc and ManNGc Feeding Experiment—Neu5Ac, Neu5Gc or ManNGc were dried, dissolved in the appropriate media supplemented with heat-inactivated human serum, sterilized using a Spin-X® (Corning Inc., Corning, N.Y.) and then added to the cells. The pH of the media containing Sia was adjusted to neutrality using sterilized 1M NaOH before starting the feeding experiment. Cells were cultured in the presence of up to 3 mM free Sia or ManNGc for 1 or 3 days at 37° C. At the end of the feeding, cells were washed with cold PBS, harvested either by scraping or with 2 mM EDTA for fibroblasts, and washed again with cold PBS prior to fractionation.\nFractionation of the Labeled Cells—Washed cell pellets were sonicated into 500 μL of 20 mM sodium phosphate buffer or 20 mM Tris-HCl, pH 7.5, using 4×15 second pulses of a sonicator cell disrupter, model Some Dismembrator (Fisher Scientific, Hampton, N.J.) at a probe setting of 3. The sonicate was centrifuged at 75×g for 15 min., and the pellet obtained consisted primarily of nuclei and unbroken cells. The pellet contained <5% of the incorporated sialic acid as determined using a radioactive tracer (data not shown.) The supernatant was therefore considered as the “total homogenate” fraction. A portion (20%) of the “total homogenate” fraction was taken for protein quantification and Sia analysis by DMB derivatization and HPLC analysis (as discussed below.) The remainder was centrifuged at 100,000×g for 1 h. The resulting pellet, called the “membrane” fraction, was then resuspended by sonication (15 sec.) in 200 μl of sodium acetate buffer, pH 5.5. The 100,000×g supernatant, called the “soluble” fraction was adjusted to 90% ethanol using absolute ice-cold ethanol, and placed overnight at −20° C. The flocculant precipitate, which represents the “soluble protein” fraction, was washed 3 times with 90% ice-cold ethanol and then resuspended in 200 μl of water. The supernatant fluid representing the cytosolic low molecular weight (LMW) fraction was dried and brought up in 100 μL with water prior to Sia analysis. All the Sias in these fractions were released with mild acid hydrolysis if necessary and then analyzed by HPLC after DMB derivatization. Protein quantification was performed on the total homogenate, membrane and soluble protein fractions by using the BCA protein assay kit from Pierce (Rockford, Ill.) In some experiments, the resulting data obtained for the Sia bound to the membrane fraction and to the soluble proteins were pooled and presented here as a High Molecular Weight (HMW) fraction.\nSialic Acid Release, DMB Derivatization and HPLC Analysis—The bound Sias from the total homogenate, membrane and soluble protein fractions were released using 2M acetic acid hydrolysis, 3 h. at 80° C. The released Sias, or free Sias, contained in the soluble LMW fraction were passed through a Microcon® YM-10 filter (Millipore, Bedford, Mass.) prior to DMB derivatization, which was done according to Hara et al., 1989. DMB-Sia derivatives from the different fractions were then analyzed by HPLC using a C18 column (Microsorb Mv-TM 100 A, Varian, Palo Alto, Calif.) Isocratic elution was achieved using 7% methanol, 8% acetonitrile in water during 50 min. at 0.9 ml/min flow. The eluant was monitored by fluorescence.\nQuantification of Sias—For all HPLC chromatograms, the quantification of Sias was done by comparison with known quantities of DMB derivatized Neu5Gc and Neu5Ac used as standards and then reported in terms of pmoles of Sia. For total homogenate, membrane and cytosolic protein fractions, this number was expressed per mg of protein. Due to minor sample-to-sample variations in amounts and recoveries, the data in the Figures is presented as percent of Neu5Gc over total Sias, rather than as absolute amounts."}, "[4]": {"conditions": "3 mM Neu5Gc for 3 days in the presence of 15 mM Neu5Ac"}}}
{"smiles": "CC(=O)N[C@H]1[C@H]([C@H](O)[C@H](O)CO)OC(O)(C(=O)O)C[C@@H]1O", "note": "(stereo partly drawn) [Neu5Ac, N-acetylneuraminic acid]", "values": [{"measurement": "Neu5Gc content of the fractions", "setting": "[1]", "value": "almost no detectable Neu5Gc"}, {"measurement": "change of percentages of Neu5Gc in the different fractions", "setting": "[2]", "value": "changed only minimally"}, {"measurement": "Neu5Gc as percent of total Sia, TH", "setting": "[3]; 3 mM Neu5Gc for 3 days in the presence of 3 mM Neu5Ac", "value": 48, "unit": "%"}, {"measurement": "Neu5Gc as percent of total Sia, TH", "setting": "[3]; [4]", "value": 35, "unit": "%"}, {"measurement": "Neu5Gc as percent of total Sia, membrane-bound fraction", "setting": "[3]; [4]", "value": "almost to zero"}, {"measurement": "Neu5Gc as percent of total Sia, membrane-bound fraction", "setting": "[3]; 3 mM Neu5Gc for 3 days with 3 mM Neu5Ac", "value": 29.9, "unit": "%"}]}
